From patent publication US7005417B1, “Echinocandin derivatives, method for preparing same and use as antifungal agents” (Aventis Pharma S.A., priority 1999, dated 2006)

Test system: Glucan Synthase of Candida albicans
Experiment: Inhibition of the Glucan Synthase of Candida albicans
Type: biochemical
Conditions: Candida albicans membranes, 14C-UDP glucose, 25° C. for 1 hour
Experimental: A—Inhibition of the Glucan Synthase of Candida albicans
Candida albicans membranes were purified according to the process described by Tang et al Antimicrob. Agents Chemother 35, 99–103, 1991. 22.5 μg of membrane proteins are incubated in a mixture of 2 Mm of 14C-UDP glucose (specific activity=0.34 mCi./mmol, 50 μg of α-amylase, 1 Mm of dithiotreitol (DTT), 1 Mm EDTA, 100 Mm NaF, 7 μM of GTP-γ-S, 1 M of sucrose and 50 Mm of Tris-HCL (pH 7.8) in a volume of 100 μl. The medium is incubated at 25° C. for 1 hour and the reaction is terminated by adding TCA at a final concentration of 5%. The reaction mixture is transferred onto a pre-humidified glass fibre filter. The filter is washed, dried and its radioactivity is counted.
Mulundocandine is used as a positive control.
Control of the vehicle is carried out with the same quantity of 1% DMSO.

Substance: 1-[4-[(2-aminoethyl)amino]-N2-[[4-[5-[4-pentyloxy)-phenyl]-3-isoxazolyl]-phenyl]-carbonyl]-L-ornithine]-4-(4-hydroxyphenyl)-L-threonine]-5-L-serine-echinocandine B [Example 1]
- Inhibition of the Glucan Synthase of Candida albicans: good activity
